How the values were obtained:
Assay type in all cases: biochemical
[1] = target: T1, recombinant human baculoviral VEGFR2 cyctoplasmic domain (Homo sapiens, UniProt P35968); experiment: VEGFR2 kinase inhibition assay (ELISA-based, time-resolved fluorescence); settings: 1 uM compound, 30 μM ATP; for inhibition at 1 µM: read-out: VEGFR-2 kinase % inhibition @ 1 uM
T1 construct: recombinant human baculoviral VEGFR2 cyctoplasmic domain; host or cells: baculovirus expression system

[2] = target: T2, recombinant human baculovirus-expressed VEGFR1 cytoplasmic domain (Homo sapiens, UniProt P17948); experiment: VEGFR1 kinase inhibition assay (ELISA-based, time-resolved fluorescence); settings: 1 uM compound, 30 μM ATP; for inhibition at 1 µM: read-out: VEGFR-1 kinase % inhibition @ 1 uM
T2 construct: recombinant human baculovirus-expressed VEGFR1 cytoplasmic domain; host or cells: baculovirus expression system
T2 sequence (P17948 781-1338 limits assumed): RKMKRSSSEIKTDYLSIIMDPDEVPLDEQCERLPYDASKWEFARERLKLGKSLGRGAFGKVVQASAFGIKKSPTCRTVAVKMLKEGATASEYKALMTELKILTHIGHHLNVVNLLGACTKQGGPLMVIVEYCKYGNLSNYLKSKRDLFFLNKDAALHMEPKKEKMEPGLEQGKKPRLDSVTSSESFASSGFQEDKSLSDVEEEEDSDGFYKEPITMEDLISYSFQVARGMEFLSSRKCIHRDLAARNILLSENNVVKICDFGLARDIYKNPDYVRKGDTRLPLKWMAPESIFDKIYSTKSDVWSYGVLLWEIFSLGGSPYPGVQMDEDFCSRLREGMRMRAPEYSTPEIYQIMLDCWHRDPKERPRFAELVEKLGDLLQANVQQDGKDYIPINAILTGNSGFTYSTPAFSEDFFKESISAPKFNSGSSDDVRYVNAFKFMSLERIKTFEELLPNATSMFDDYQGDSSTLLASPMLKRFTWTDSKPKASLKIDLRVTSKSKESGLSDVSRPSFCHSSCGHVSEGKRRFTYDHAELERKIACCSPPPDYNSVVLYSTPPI
Description: Inhibition of Vascular Endothelial Growth Factor Receptor-1 Kinase Activity
The VEGFR1 kinase activity assay utilizes an ELISA-based format in a 96-well FluoroNUNC Maxisorp plate with a time-resolved fluorescence readout. The plate was coated with 100 μl/well of substrate solution (recombinant human PLC-γ/GST) at a concentration of 40 μg/ml in Tris buffered saline (TBS). The VEGFR1 activity was assayed in 100-μl assay micture containing 50 mM HEPES (pH 7.4), 30 μM ATP, 10 mM MnCl2, 0.1% BSA, 2% DMSO, and 300 ng/ml prephosphorylated recombinant human baculovirus-expressed VEGFR1 cytoplasmic domain. Compounds were screened for inhibition of the VEGFR1 kinase activity at a concentration of 1 μM. The kinase reaction was allowed to proceed at 37° C. for 15 minutes. The detection antibody, europium-labeled anti-phosphotyrosine antibody (Wallac #CR04-100), was added at 1:5000 dilution in block buffer (3% BSA in TBST). After a 1-hour incubation at 37° C., 100 μl of enhancement solution (Wallac #1244-105) was added and the plate was gently agitated. After 5 min, the fluorescence of the resulting solution was measured using the BMG Fluostar (Model # 403).

[3] = target: T3, recombinant human baculovirus-expressed FGFR1 cytoplasmic domain (Homo sapiens, UniProt P11362); experiment: FGFR1 kinase inhibition assay (ELISA-based, time-resolved fluorescence); settings: 1 uM compound; 20 μM ATP
T3 construct: recombinant human baculovirus-expressed FGFR1 cytoplasmic domain; host or cells: baculovirus expression system
T3 sequence (P11362 398-822 limits assumed): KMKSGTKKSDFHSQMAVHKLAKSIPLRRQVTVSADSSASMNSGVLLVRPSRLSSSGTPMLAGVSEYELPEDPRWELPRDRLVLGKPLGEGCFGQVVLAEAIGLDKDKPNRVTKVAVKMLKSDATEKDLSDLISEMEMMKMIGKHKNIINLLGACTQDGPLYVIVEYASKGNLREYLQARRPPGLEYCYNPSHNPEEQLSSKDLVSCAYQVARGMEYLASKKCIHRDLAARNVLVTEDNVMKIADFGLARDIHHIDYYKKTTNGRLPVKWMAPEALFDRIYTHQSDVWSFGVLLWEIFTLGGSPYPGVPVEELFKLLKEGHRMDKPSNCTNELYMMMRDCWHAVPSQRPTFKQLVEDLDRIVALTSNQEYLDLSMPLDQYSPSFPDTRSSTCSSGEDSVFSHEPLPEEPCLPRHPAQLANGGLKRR
Description: Inhibition of Fibroblast Growth Factor Receptor-1 (FGFR1) Kinase Activity
The FGFR1 kinase activity was measured using an ELISA-based format in a 96-well FluoroNUNC Maxisorp plate with a time-resolved fluorescence readout as described for trkA kinase. The plate was coated with 100 μl/well of substrate solution (recombinant human PLC-γ/GST) at a concentration of 10 μg/ml in Tris buffered saline (TBS). The FDGFR1 activity was assayed in 100-μl assay micture containing 50 mM HEPES (pH 7.4), 20 μM ATP, 10 mM MnCl2, 0.1% BSA, 2% DMSO, and 15 ng/ml recombinant human baculovirus-expressed FGFR1 cytoplasmic domain (prephosphorylated prior to use). Compounds were screened for inhibition of the FGFR1 kinase activity at a conentration of 1 μM. The kinase reaction was allowed to proceed at 37° C. for 15 minutes. The detection antibody, europium-labeled anti-phosphotyrosine antibody (Wallace #CR04-100), was added at 1:5000 dilution in block buffer (3% BSA in TBST). After a 1-hour incubation at 37° C., 100 μl of enhancement solution (Wallac #1244-105) and the plate was gently agitated. After 5 min, the fluorescence of the resulting solutions measured using the BMG Fluostar (Model # 403).

[4] = target: T4, baculoviral GST-MLK3KD (Homo sapiens, UniProt Q16584); experiment: Mixed Lineage Kinase-3 inhibition assay (Millipore Multiscreen plate, 32P); settings: 1 uM compound, 100 μM ATP; for inhibition at 1 µM: read-out: MLK-3 Kinase % inhibition @ 1 uM
T4 construct: 2 μg/ml of baculoviral GST-MLK3KD; GST (N); host or cells: baculovirus expression system
T4 sequence (Q16584 117-379 limits assumed): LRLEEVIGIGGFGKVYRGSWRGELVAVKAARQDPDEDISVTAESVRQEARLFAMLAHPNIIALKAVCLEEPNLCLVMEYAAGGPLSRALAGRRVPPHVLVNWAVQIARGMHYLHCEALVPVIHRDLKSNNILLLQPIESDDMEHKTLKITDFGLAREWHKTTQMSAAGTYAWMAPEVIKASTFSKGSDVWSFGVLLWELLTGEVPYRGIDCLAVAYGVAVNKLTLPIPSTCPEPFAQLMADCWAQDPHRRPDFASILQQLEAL
Description: Inhibition of Mixed Lineage Kinase-3 Activity
Assays were performed using the Millipore Multiscreen plate format as described for MLK1. Briefly, each 50-μl assay mixture contained 20 mM Hepes, pH 7, 1 mM EGTA, 10 mM MgCl2, 1 mM DTT, 25 mM β-glycerophosphate, 100 μM ATP, 0.25 μCi [γ-^32P]ATP, 0.1% BSA, 500 μg/ml myelin basic protein (UBI #13-104), 2% DMSO, various concentrations of test compound, and 2 μg/ml of baculoviral GST-MLK3KD. Samples were incubated for 15 min at 37° C. The reaction was stopped by adding ice cold 50% TCA and the proteins were allowed to precipitate for 30 min at 4° C. The plates were then washed with ice cold 25% TCA. Supermix scintillation cocktail was added, and the plates were allowed to equilibrate for 1-2 hours prior to counting.

T1 sequence (P35968 786-1356 limits assumed): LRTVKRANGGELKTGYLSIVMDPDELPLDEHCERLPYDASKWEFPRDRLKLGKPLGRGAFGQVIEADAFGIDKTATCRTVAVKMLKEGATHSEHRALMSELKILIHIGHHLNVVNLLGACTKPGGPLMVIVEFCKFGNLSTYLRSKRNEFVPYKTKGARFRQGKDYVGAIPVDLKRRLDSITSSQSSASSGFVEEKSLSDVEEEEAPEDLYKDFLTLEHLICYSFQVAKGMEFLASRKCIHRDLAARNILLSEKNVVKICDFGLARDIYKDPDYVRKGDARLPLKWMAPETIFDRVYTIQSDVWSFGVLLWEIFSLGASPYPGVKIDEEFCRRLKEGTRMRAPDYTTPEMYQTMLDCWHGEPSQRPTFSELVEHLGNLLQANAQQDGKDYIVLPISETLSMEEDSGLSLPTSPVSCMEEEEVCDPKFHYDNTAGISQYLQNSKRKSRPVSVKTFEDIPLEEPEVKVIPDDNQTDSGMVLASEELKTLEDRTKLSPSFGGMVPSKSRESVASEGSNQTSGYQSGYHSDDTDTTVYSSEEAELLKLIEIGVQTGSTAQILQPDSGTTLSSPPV

Compound | VEGFR-2 kinase % inhibition @ 1 uM [1] | VEGFR-1 kinase % inhibition @ 1 uM [2] | FGFR1 % inhibition @ 1 uM [3] | MLK-3 Kinase % inhibition @ 1 uM [4] | inhibition at 1 µM [1] | inhibition at 1 µM [2] | inhibition at 1 µM [3] | inhibition at 1 µM [4]
O=C1NN=C(c2ccco2)C1=Cc1c[nH]c2ccc(F)cc12 [Compound 48] | 58% | 54% | 43% | 31% | – | – | – | –
O=C1NN=C(c2ccco2)C1=Cc1c[nH]c2ccc(Cl)cc12 [Compound 49] | 50% | 32% | 39% | 21% | – | – | – | –
Cc1cc(C)c(C=C2C(=O)NN=C2c2csc(-c3ccccc3)n2)[nH]1 [Compound 40] | 26% | 16% | 22% | 22% | – | – | – | –
Cn1cc(C=C2C(=O)NN=C2c2ccco2)c2ccccc21 [Compound 45] | 72% | 46% | 8% | 56% | – | – | – | –
Cc1cc(C)c(C=C2C(=O)NN=C2c2ccco2)[nH]1 [Compound 28, 4-[(3,5-dimethylpyrrol-2-yl)methylene]-3-(2-furyl)-2-pyrazolin-5-one] | – | – | – | – | 80% | 36% | 37% | 50%
COc1ccc2[nH]cc(C=C3C(=O)NN=C3c3ccoc3)c2c1 [Compound 11] | 50% | 23% | 24% | 31% | – | – | – | –
Cc1cccc2c(C=C3C(=O)NN=C3c3ccoc3)c[nH]c12 [Compound 22] | 41% | 23% | 22% | 24% | – | – | – | –
N#CCCn1cc(C=C2C(=O)NN=C2c2ccco2)c2ccccc21 [Compound 67] | 20% | 22% | 23% | 8% | – | – | – | –
O=C1NN=C(c2ccco2)C1=Cc1c[nH]c2ccc(OCc3ccccc3)cc12 [Compound 43] | 25% | −2% | 26% | 21% | – | – | – | –
COc1ccc2[nH]cc(C=C3C(=O)NN=C3c3ccco3)c2c1 [Compound 51] | 55% | 25% | 9% | 47% | – | – | – | –
Cn1cc(C=C2C(=O)NN=C2c2cc3ccccc3o2)c2ccccc21 [Compound 59] | 14% | −2% | 29% | 47% | – | – | – | –
Cc1ccc2c(C=C3C(=O)NN=C3c3ccn(C)c3)c[nH]c2c1 [Compound 33] | 25% | 36% | 27% | 28% | – | – | – | –
N#CCCn1cc(C=C2C(=O)NN=C2c2nccs2)c2ccccc21 [Compound 64] | 43% | 26% | 7% | 15% | – | – | – | –
O=C1NN=C(c2cccs2)C1=Cc1cn(Cc2ccccc2)c2ccccc12 [Compound 75] | 32% | 5% | 26% | 24% | – | – | – | –
Cn1ccc(C2=NNC(=O)C2=Cc2c[nH]c3ccc(Cl)cc23)c1 [Compound 35] | 19% | 10% | 29% | 34% | – | – | – | –
O=C1NN=C(c2ccco2)C1=Cc1c[nH]c2cccc(OCc3ccccc3)c12 [Compound 44] | 18% | 2% | 10% | 28% | – | – | – | –
Cc1nc[nH]c1C=C1C(=O)NN=C1c1ccco1 [Compound 53] | 34% | 21% | 50% | 12% | – | – | – | –
Cc1[nH]c(C=C2C(=O)NN=C2c2ccoc2)c(Br)c1Br [Compound 8] | 35% | 21% | 24% | 10% | – | – | – | –
Cc1cc(C)c(C=C2C(=O)NN=C2c2cccnc2)[nH]1 [Compound 10] | 64% | 41% | 14% | 44% | – | – | – | –
Cc1cc(C)c(C=C2C(=O)NN=C2c2cccs2)[nH]1 [Compound 61] | 75% | 44% | 35% | 72% | – | – | – | –
O=C1NN=C(c2cccs2)C1=Cc1c[nH]c2ccccc12 [Compound 38, 4-(indol-3-ylmethylene)-3-(2-thienyl)-2-pyrazolin-5-one] | – | – | – | – | 42% | 28% | 28% | 38%
